Reference: patent publication US20240189317A1, “ANTIVIRAL COMPOSITIONS AND METHODS” (AI Therapeutics, Inc., priority 2021, published 2024)
Where two headings read alike, the source gives them in different places.

Tested on: SARS-CoV-2 (USA-WA1/2020)
Assay type: cell-based
Details: Caco-2 cells, vs DMSO controls

SMILES: Cc1cccc(/C=N/Nc2cc(N3CCOCC3)nc(OCCc3ccccn3)n2)c1 [Apilimod]
- Percent Infection (Exp 1) (apilimod 31.25 nM single agent): 93.632%
- Percent Infection (Exp 2) (apilimod 31.25 nM single agent): 74.342%
- Percent Infection (Exp 1) (apilimod 62.5 nM single agent): 75.308%
- Percent Infection (Exp 2) (apilimod 62.5 nM single agent): 53.914%
- Percent Infection (Exp 1) (apilimod 125 nM single agent): 35.618%
- Percent Infection (Exp 2) (apilimod 125 nM single agent): 37.259%
- Percent Infection (Exp 1) (apilimod 250 nM single agent): 11.935%
- Percent Infection (Exp 2) (apilimod 250 nM single agent): 29.685%
- Percent Infection (Exp 1) (apilimod 500 nM single agent): 12.267%
- Percent Infection (Exp 2) (apilimod 500 nM single agent): 18.730%
- Percent Infection (Exp 1) (apilimod 1000 nM single agent): 4.524%
- Percent Infection (Exp 2) (apilimod 1000 nM single agent): 2.968%
- Percent Infection (Exp 1) (apilimod 2000 nM single agent): 0.591%
- Percent Infection (Exp 2) (apilimod 2000 nM single agent): 0.297%
